Earlier results, collected in patent US7655374B2, “Fixing liquid, toner fixing method and apparatus, and image forming method and apparatus” (Ricoh Company, Ltd., priority 2005, dated 2010).

Details: acute oral toxicity; species not given

## CCCCCCCCCCCC [n-dodecane]
  LD50: > 5000 mg/kg

## CCCCOC(=O)CCCCCCCCC(=O)OCCCC [dibutyl sebacate]
  LD50: 14900 mg/kg

## diethoxyethyl sebacate
  LD50: > 5000 mg/kg

## CCCCCCCCCCCC(=O)OCC [ethyl laurate]
  LD50: 3000 mg/kg

## CC(C)COC(=O)CCCCC(=O)OCC(C)C [diisobutyl adipate]
  LD50: 12300 mg/kg
